The record followed here is patent US6207677A, “Piperidine derivatives having anxiolytic effect” (H. Lundbeck A/S, priority 1991, dated 2001).

A word on the IC50: it is the concentration at which inhibition is half-maximal. Higher therefore signals weaker potency in that assay.

The assay deals with sigma receptors. Put plainly: Inhibition of 3H-DTG binding to sigma receptors in rat brain in vitro. To be noted: 2 nM 3H-DTG, rat brain without cerebellum, 25° C., 20 min. How it is done: INHIBITION OF 3H-DTG BINDING TO SIGMA RECEPTORS IN RAT BRAIN IN VITRO
By this method the inhibition by drugs of the binding of 2 nM ^3 H-DTG (1,3,di-o-tolyl guanidine) to sigma receptors in homogenates or membranes from rat brain without cerebellum is determined in vitro as modified from Weber et al. Proc. Natl. Acad. Sci. 1986, 83,8784.
Homogenate: Rats (150-250 g) are decapitated and the brains (without cerebellum) quickly removed and placed on ice, weighed and homogenized in 100 vol ice-cold (0° C.) 50 mM Tris-buffer (pH 7.7) in an ethanol rinsed glass/teflon homogenizer at 0° C. and kept on ice until use.
P2-membranes: Brains are homogenized in 10 vol 0.32 M sucrose in an ethanol rinsed glass/teflon homogenizer with 10 strokes up and down. The homogenate is centrifuged for 10 min at 900×gm at 4° C. The supernatant is decanted and centrifuged for 20 min at 50,000 gm at 4° C. The resulting pellet is resuspended in 10 vol ice-cold […] Tris-buffer (pH 7.7) and incubated for 30 min. at 37° C. The membrane suspension is then centrifuged for further 20 min. at 50,000 gm at 4° C. The pellet is resuspended in 50 vol. of ice-cold Tris-buffer and used immediately.
0.5 ml 50 mM Tris-buffer (pH 7.7), 0.25 ml displacer (6×100 μM DTG, 6× [test compound], or Tris-buffer), and 0.25 ml 6×2 nM. ^3 H-DTG are mixed into 5 ml s plastic test tubes and kept at 4° C. until use. The binding reaction is initiated by mixing 0.5 ml tissue suspension into this solution and incubate at 25° C. for 20 min. Glass fiber filters (Whatman GF/B) are placed on the filter machine which is then closed tightly. Just before filtration vacuum is applied, and the filters washed with 0.1% PEI solution from a spray bottle followed by one wash with Tris-buffer.
The binding reaction is stopped by filtration of the assay mixture at reduced pressure (750 mbar) followed by further 3 washes with 5 ml ice-cold Tris-buffer. The filters are then placed in counting vials and 4 ml scintillation solution added. The vials are counted in a Beckmann scintillation counter.
50 mM Tris-buffer pH 7.7: 7.38 g Trizma--7.7 plus distilled H2 O ad 1 liter. 100 ml 10% polyethylenimine (PEI): 100 ml dest. H2 O is added to approx. 20 g 50% PEI which is solubilized by stirring and heating. Diluted (1+99) before use. 6×2 nM ^3 H-DTG: The exact volume depends on the actual concentration of the batch, but is made as close as possible to 12 nM. The containers for the radioactive solution is rinsed in 96% ethanol before use.
^3 H-DTG was obtained from NEN Research Products, Du Pont Denmark. Specific activity 62.3 Ci/mmol.
The known sigma receptor ligands BMY 14802 and rimcazole were included in the test for comparison purposes.
With `Fc1ccc(C2CCN(CCCCc3c[nH]c4cc(Cl)c(Cl)cc34)CC2)cc1` [Compound 2ee, 5,6-Dichloro-3-[4-(4-(4-fluorophenyl)-1-piperidyl)-1-butyl]-indole], the half-inhibitory concentration (IC50) stood at 1 nM.
As for `Clc1ccc(C2CCN(CCCCc3c[nH]c4ccccc34)CC2)cc1Cl` [Compound 2dd, 3-[4-(4-(3,4-Dichlorophenyl)-1-piperidyl)-1-butyl]indole], the figure is 1.7 nM.
Then `c1ccc(CCCCN2CCC3(CCc4ccccc4O3)CC2)cc1` [Compound 2h, 3,4-Dihydro-1'-(4-phenyl-1-butyl)spiro[2H-1-benzopyran-2,4'-piperidine]], with 1.4 nM; and `Clc1cccc(Cl)c1C1CCN(CCCCc2noc3ccccc23)CC1` [Compound 19d, 3-[4-(4-(2,6-Dichlorophenyl)-1-piperidyl)-1-butyl]-1,2-benzisoxazol], with 4.4 nM; and `Fc1ccc(-n2nc(CCCCN3CCC4(CC3)OCc3ccccc34)c3cc(C(F)(F)F)ccc32)cc1` [Compound 17a, 1'-[4-[1-(4-Fluorophenyl)-5-trifluoromethylindazol-3-yl]-1-butyl]spiro[isobenzofuran-1(3H),4'-piperidine]], with 0.11 nM.
As for `CCCN1CCC2(CC1)OCc1ccccc12` [Compound 4a, 1'-Propyl-spiro[isobenzofuran-1(3H),4'-piperidine]], the figure is 23 nM; as for `Fc1ccc(C2CCN(CCCCc3cn(-c4ccccc4)c4ccccc34)CC2)cc1` [Compound 9p, 1-Phenyl-3-[4-(4-(4-fluorophenyl)-1-piperidyl)-1-butyl]indole], 0.28 nM; as for `Fc1ccc(C2CCN(CCOc3cn(-c4ccc(F)cc4)c4ccc(Cl)cc34)CC2)cc1` [Compound 14b], 3.8 nM.
Consider `O=S(=O)(c1cccs1)n1cc(CCCCN2CCC3(CC2)OCc2ccc(F)cc23)c2ccccc21` [Compound 6c, 6-Fluoro-1'-(4-(1-(2-thienyl)sulfonyl-3-indolyl)-1-butyl)spiro[isobenzofuran-1(3H),4'-piperidine)], for which the IC50 was less than 0.1 nM.
Then `Fc1ccc2c(c1)C1(CCN(CCCCc3c[nH]c4ccccc34)CC1)OC2` [Compound 2jj, 6-Fluoro-1'-(4-(3-indolyl)-1-butyl)spiro[isobenzofuran-1(3H),4'-piperidine]], with 1.4 nM; and `Fc1ccc(-n2cc(OCCCN3CCC4(CC3)OCc3ccccc34)c3cc(Cl)ccc32)cc1` [Compound 8c], with 0.66 nM.
Then `c1csc(-n2cc(CCCCN3CCC4(CC3)OCc3ccccc34)c3ccccc32)c1` [Compound 5d, 1'-[4-[1-(2-Thienyl)-3-indolyl]-1-butyl]spiro[isobenzofuran-1(3H),4'-piperidine]], with 0.24 nM; and `Fc1ccc(-n2cc(CCCCN3CCC4(CC3)SCc3ccccc34)c3ccccc32)cc1` [Compound 9c, 1'-[4-[1-(4-Fluorophenyl)-3-indolyl]-1-butyl]spiro[benzo[c]thiophene-1(3H),4'-piperidine]], with 0.14 nM; and “1'-[3-(2,3-Dihydro-5-fluoro-benzofuran-3-yl)-1-butyl]-spiro[isobenzofuran-1(3H),4'-piperidine] [Compound 11b]”, with 0.63 nM.
Then `CC(C)c1ccc(C2CCN(CCCCc3cn(-c4ccc(F)cc4)c4ccccc34)CC2)cc1` [Compound 9n, 1-(4-Fluorophenyl)-3-[4-(4-(4-isopropylphenyl)-1-piperidyl)-1-butyl]indole], with 6.3 nM; and `O=S1(=O)CC(CCCCN2CCC3(CC2)OCc2ccccc23)c2ccccc21` (stereo not drawn) [Compound 33, 1'-[4-(2,3-Dihydro-benzo[b]thiophen-3-yl)-1-butyl]spiro[isobenzofuran-1(3H),4'-piperidine]-S,S-dioxide], with 0.95 nM.
Molecule `c1ccc(CCCN2CCC3(CC2)OCc2ccccc23)cc1` [Compound 4d, 1'-(3-Phenyl-1-propyl)-spiro[isobenzofuran-1(3H),4'-piperidine]] registered an IC50 of 1.1 nM.
Then `Cc1ccc2c(c1)COC21CCN(CCCCc2cn(-c3ccc(F)cc3)c3ccccc23)CC1` [Compound 9h, 1'-[4-[1-(4-Fluorophenyl)-3-indolyl]-1-butyl]-5-methylspiro[isobenzofuran-1(3H),4'-piperidine]], with 2.3 nM.
As for `CN(C)CCn1cc(CCCCN2CCC3(CC2)OCc2ccccc23)c2ccccc21` [Compound 36, 1'-[4-(1-(2-Dimethylamino-1-ethyl)-3-indolyl)-1-butyl]spiro[isobenzofuran-1(3H) ,4'-piperidine]], the figure is 4.5 nM.
As for `c1ccc(Cn2cc(CCCCN3CCC4(CC3)OCc3ccccc34)c3ccccc32)cc1` [Compound 2hh, 1'-[4-(1-Benzyl-3-indolyl)-1-butyl]-spiro[isobenzofuran-1(3h),4'-piperidine]], the figure is 0.02 nM; as for `c1ccc(CCCCN2CCC3(CC2)Cc2ccccc2CO3)cc1` [Compound 2g, 1,4-Dihydro-1'-(4-phenyl-1-butyl)spiro[3H-2-benzopyran-3,4'-piperidine]], 0.36 nM; as for `c1ccc2c(c1)COC21CCN(CCCCc2c[nH]c3ccccc23)CC1` [Compound 2u, 1'-[4-(3-Indolyl)-1-butyl]-spiro[isobenzofuran-1(3H),4'-piperidine]], 0.41 nM.
Molecule `Fc1ccc2occ(CCCN3CCC4(CC3)OCc3ccccc34)c2c1` [Compound 15, 1'-[3-(5-Fluorobenzofuran-3-yl)-1-propyl)spiro[isobenzofuran-1(3H) ,4'-piperidine]] registered an IC50 of 0.42 nM.
Then `Fc1ccc(C2CCN(CCCOc3nsc4ccccc34)CC2)cc1` [Compound 21, 3-[3-(4-(4-Fluorophenyl)-piperidin-1-yl)-1-propyloxy]-1,2-benzisothiazole], with 0.2 nM; and `Fc1ccc(C2CCN(CCCCc3noc4ccccc34)CC2)cc1` [Compound 19b, 3-[4-(4-(4-Fluorophenyl)-1-piperidyl)-1-butyl]-1,2-benzisoxazole], with 0.49 nM; and `c1ccc(CCCCN2CCC3(CC2)COCc2ccccc23)cc1` [Compound 2f], with 0.95 nM.
As for `c1ccc2c(c1)COC21CCN(CCCCc2nsc3ccccc23)CC1` [Compound 22, 1'-(4-(1,2-Benzisothiazol-3-yl)-1-butyl)spiro[isobenzofuran-1(3H),4'-piperidine]], the figure is 0.05 nM; as for `COc1ccccc1C1CCN(CCCCC2CNc3ccccc32)CC1` (stereo not drawn) [Compound 13d, 2,3-Dihydro-3-[4-(4-(2-methoxyphenyl)-1-piperidinyl)-1-butyl]indol], 2.1 nM.
For `Fc1ccc(-n2cc(OCCCN3CCC4(CC3)OCc3ccccc34)c3ccccc32)cc1` [Compound 8a, 1'-[3-[1-(4-Fluorophenyl)-3-indolyloxy]-1-propyl]spiro[isobenzofuran-1(3H),4'-piperidine]], the IC50 turned out to be 0.21 nM.
As for `c1ccc2c(c1)COCC21CCN(CCCCCCc2c[nH]c3ccccc23)CC1` [Compound 2y, 1'-[6-(3-Indolyl)-1-hexyl]-spiro[1H-2-benzopyran-4(3H),4'-piperidine]], the figure is 0.84 nM; as for `c1ccc(CCCCN2CCC3(CC2)SCc2ccccc23)cc1` [Compound 2d, 1'-(4-Phenyl-1-butyl)spiro[benzo[c]thiophene-1(3H),4'-piperidine]], 0.77 nM.
Then `Fc1ccc2[nH]cc(CCCCN3CCC4(CC3)OCc3ccccc34)c2c1` [Compound 2aa], with 0.3 nM; and `c1ccc(CCCCN2CCC3(CC2)OCc2ccccc23)cc1` [Compound 2a, 1'-(4-Phenyl-1-butyl)spiro[isobenzofuran-1(3H),4'-piperidine]], with 0.25 nM.
As for `OC(CCCN1CCC2(CC1)OCc1ccccc12)c1ccc(F)cc1` (stereo not drawn) [Compound 26a, 1'-[4-(4-Fluorophenyl)-4-hydroxy-1-butyl]-spiro[isobenzofuran-1(3H),4'-piperidine]], the figure is 0.89 nM.
`c1ccc(C2CCN(CCCCc3c[nH]c4ccccc34)CC2)cc1` [Compound 2cc, 3-[4-(4-Phenyl-1-piperidyl)-1-butyl]indole] displayed an IC50 of 1.1 nM.
Then `Cc1ccc(C2CCN(CCCOc3cn(-c4ccc(F)cc4)c4ccc(Cl)cc34)CC2)cc1` [Compound 8d, 5-Chloro-1-(4-fluorophenyl)-3-[3-(4-(4-methylphenyl)-1-piperidinyl)-1-propyloxy]indol], with 11 nM.
